Results from ChEMBL document CHEMBL1140007, “Structure-activity studies of phenanthroindolizidine alkaloids as potential antitumor agents” (Bioorg Med Chem Lett, 2007).
Active and inactive are the calls of the source. The calls are words filed in the database; no cut-off is given here.

What was measured:
[1] = Inhibition of CRE-mediated gene transcription in HepG2 cells by luciferase reporter gene assay; assay type: cell-based; details: Homo sapiens
[2] = Inhibition of NF-kappaB-mediated gene transcription in HepG2 cells by luciferase reporter gene assay; assay type: cell-based; details: Homo sapiens
PANC-1 = assay: Cytotoxicity against PANC1 cells; assay type: functional; details: Homo sapiens
HepG2 [3] = assay: Cytotoxicity against HepG2 cells; assay type: functional; details: Homo sapiens
HepG2 [4] = assay: Down regulation of cyclin D1 expression in HepG2 cells; assay type: functional, cell-based; details: Homo sapiens
Mus musculus [5] = assay: Reduction of body weight in HepG2 xenografted nude mouse at 9 mg/kg, ip after 9 days; assay type: ADME, organism-based; design: dose 9 mg/kg, route intraperitoneal; scale not given: the % may be the effect or the level left; details: in vivo, 216 h
Mus musculus [6] = assay: Reduction of body weight in HepG2 xenografted nude mouse at 9 mg/kg, ip after 10 days; assay type: ADME, organism-based; design: dose 9 mg/kg, route intraperitoneal; scale not given: the % may be the effect or the level left; details: in vivo, 240 h
HepG2 [7] = assay: Antitumor activity against HepG2 cells xenografted nude mouse at 9 mg/kg, ip twice per day on every third day for four cycles; assay type: functional, organism-based; design: dose 9 mg/kg; details: Homo sapiens

| SMILES | IC50 [1] [µM] | IC50 [2] [µM] | GI50 (PANC-1) [µM] | GI50 (HepG2 [3]) [µM] | Activity (HepG2 [4]) | Activity (Mus musculus [5]) [%] | Activity (Mus musculus [6]) [%] | Activity (HepG2 [7]) |
| --- | --- | --- | --- | --- | --- | --- | --- | --- |
| COc1cc2c(cc1OC)-c1cc(OC)c(OC)cc1C1CN3CCC[C@H]3C=C21 (some centres not stated) | > 0.3 | > 0.3 | – | – | – | – | – | – |
| COc1cc2c3c(c4cc(OC)c(OC)cc4c2cc1OC)[C@@H](O)[C@@H]1CCCN1C3 | > 0.3 | 0.315 | – | – | – | – | – | – |
| COc1ccc2c3c(c4cc(OC)c(OC)cc4c2c1)CN1CCC[C@H]1[C@@H]3O [TYLOPHORININE] | 0.08 | 0.012 | 0.011 | 0.02 | Dose-dependent effect | – | – | – |
| COc1cc2c3c(c4cc(OC)c(OC)cc4c2cc1OC)[C@H](O)[C@@H]1CCCN1C3 | 1.07 | – | – | – | – | 15 | 15 | – |
| COc1ccc2c3c(c4cc(OC)c(O)cc4c2c1)CN1CCC[C@H]1[C@H]3O [TYLOPHORINIDINE] | 0.095 | 0.01 | 0.007 | 0.011 | Dose-dependent effect | – | – | Active |
| COc1ccc2c3c(c4cc(OC)c(O)cc4c2c1)CN1CCC[C@@H]1C3 | 0.135 | 0.011 | 0.011 | 0.013 | Dose-dependent effect | – | – | inactive |
| COc1ccc2c3c(c4cc(OC)c(OC)cc4c2c1)C[N+]1([O-])CCC[C@H]1[C@@H]3O (some centres not stated) [TYLOPHORIDICINE F] | > 1 | 0.367 | 0.063 | 0.071 | Dose-dependent effect | – | – | – |
| COc1cc2c3c(c4ccc(O)cc4c2cc1OC)[C@H](O)[C@@H]1CCCN1C3 [TYLOPHORIDICINE E] | > 1 | > 1 | > 5 | > 5 | Dose-dependent effect | – | – | – |
| COc1ccc2c3c(c4cc(OC)c(O)cc4c2c1)C[N+]1([O-])CCC[C@H]1[C@H]3O (some centres not stated) [TYLOPHORIDICINE C] | > 1 | 0.6 | 0.067 | 0.098 | Dose-dependent effect | – | – | – |
| COc1cc2c3c(c4cc(OC)c(OC)cc4c2cc1O)CN1CCC[C@H]1[C@H]3O | > 0.3 | 0.322 | – | > 0.6 | – | – | – | – |
